Laboratory results from US20050042316A1, “Attractants for moths” (priority 2001, published 2005).

How the values were obtained:
[1] = tested on: H. armigera moths; test: two-choice olfactometer, moths entering the test chamber; format: in vivo, Helicoverpa armigera; conditions: for attractiveness in the olfactometer: blend complexity studies, FIG. 8; for optimum concentration in the olfactometer: formulated in Sirene base, FIG. 6
Excerpt: The design of our olfactometer (FIG. 1) has been described by Gregg et al. (1998) and is similar to that of Beerwinkle et al. (1996). The olfactometer is a two-choice system in which moths choose between two airstreams. One carries either a bouquet (about 200 g) of freshly cut plant stems with their bases in a flask of water, or plant volatiles formulated and presented as described below (the test chamber). The other carries clean air (the control chamber). Each run normally uses 50 moths, and runs are normally replicated three times for each sex and each attractant. Thus, olfactometer data points are usually each based on the responses of 150 moths. Moths are laboratory-reared, unmated and aged 1-4 (usually 2-3) days. We use two criteria for attractiveness, the test % (percentage of the total 150 moths which enter the test chamber), and success rate (number entering the test chamber relative to those entering the control chamber). The former is our primary criterion, and is the one presented here. Data are analysed using Zar's procedure for multiple comparison of proportions. With N=150, the minimum significant difference between two percentages using-this procedure is about 8%.
For testing single chemicals in the olfactometer early in the project, we dissolve the synthetic chemical in canola oil at a concentration of 10%. 200 μl of this is absorbed into a cotton dental wick which is placed in the test airstream of the olfactometer. These lures are changed every 2 h during olfactometer runs. Later tests of single chemicals to determine the effects of varying concentration are done using Sirene formulations, as discussed below.
For testing chemical blends in the olfactometer and in field trapping experiments, we are formulating in Sirene, a mixture of anti-oxidants and UV protectants which was developed by Novartis for attract-and-kill of several moth species using pheromones, and for which IPM Technologies Ltd have worldwide marketing and development rights. Chemicals are mixed into Sirene in the barrel of a syringe using a slow (4 rpm) broad-bladed propeller, which stirs the highly viscous material for 3 h. Formulations are then stored at 40 C in the sealed syringe for periods of up to 2 weeks. Sirene formulations are tested in the olfactometer by placing about 100 mg on a horizontal square (1×1 cm) of plastic (Corflute®), which is then placed on a pin in the test airstream of the olfactometer. For field testing, the plastic square carrying the formulation is held horizontally under the lid of the AgriSense trap, in the same position that a pheromone lure would be, using a screw.

[2] = tested on: moths; test: laboratory feeding studies with ingestible formulations; format: in vivo; conditions: 1% toxicant in ingestible formulations
Procedure: To determine whether moths will feed on the ingestible formulations, and whether they die as a result, we place a single moth in a 1 litre plastic container which has 50 μl of the formulation as a single droplet in a beer bottle cap, on the bottom of the container. In some experiments laboratory-reared moths are used in a constant 25° C. reverse-cycle system. In others natural cycle laboratory moths are used in containers placed outdoors. Moths are observed at regular intervals and dead ones removed for dissection. At the end of the scotophase all surviving moths are removed and after a further hour are dissected.
In these studies small droplets (50-100 μl) were placed in a 1 litre container with the moths, so they spent the night in close proximity (within 10 cm) of the droplet.

[3] = tested on: Lab reared female moths; test: field wind tunnel trials; format: in vivo; conditions: trial 8, Yanco, 0.5% methomyl
Procedure: These are used to observe behavioural responses of moths around lures, and to record kill rates of different blends and formulations, in semi-natural conditions. Clear polythene is stretched around a series of steel hoops 1.2 m in diameter which are suspended from a horizontal pipe Flywire is placed over each end. The wind tunnels are hung just above ground level and oriented parallel to the prevailing wind. Lures (3 bottle tops containing 100-200 μl of the attractant under test) are placed on a plastic dinner plate in the upwind end and 20-50 moths are released into the downwind end about 1 h before sunset. Lab reared female moths produced under natural photoperiod are used. Behavioural responses are observed using night vision glasses. In the morning both live and dead moths are collected and dissected to determine from the presence of green dye whether they have fed on the lure.

[4] = tested on: Helicoverpa spp.; test: field trapping trials with AgriSense traps; format: in vivo; conditions: for Peak catch % of phero / Whole experiment Lure N: Downs
Excerpt: For field tests of the attractiveness of different blends we use AgriSense pheromone traps of the canister type (Gregg and Wilson 1991). Traps are usually cleared three times weekly, and the catch sorted. Moths are sexed and the females dissected to determine mated status. We normally test 5 formulations at a time, replicated 4 times, so there are 4 rows of 5 traps, each row containing one replicate of each formulation. Traps are spaced 50 m apart and are rotated, within a row, between catch intervals. Experiments are analysed as Latin squares. Field trials at Cecil Plains were conducted in soybeans, cotton, chickpea, wheat, fallow land and sunflower, and at Kununurra and China, in cotton.
These trials have been done at different times, and in different areas, different crops and different weather conditions. In some cases the conditions have been less than optimal. Examples include the Twynam 1, 2 and 3 trials in the Ord River, where night temperatures were often too low for moth activity, and the last two Wamara trials in 2000 where moth numbers in the district were extremely low. Because of these differences it is not possible to directly compare the numbers of moths caught between trials. We have therefore expressed the results as a percentage of the pheromone traps run in the same experiments. This percentage has been calculated on the catch interval with the highest volatile catches. We do this because the residual life of some volatiles is short and some formulations probably lose attractiveness during the course of the trials, whereas the pheromone release rate remains relatively constant. PBE1 was also included in almost all of these trials, as a standard plant volatile blend. The unweighted average catch of PBE1, across all trials, was 5.8% of the pheromone catch. Though PBE1 and some other volatile formulations occasionally caught up to 15-33% of the corresponding pheromone catch, when this occurred the overall numbers of moths were low, so the results are statistically unreliable.

[5] = single chemicals in Sirene formulations
[6] = single chemicals, 10% in canola oil, females, FIG. 5
[7] = Wamara3 Soybean, 20 Feb-12 Mar 99

OCCc1ccccc1 [2-phenylethanol]
test % ([1]; 2% concentration in Sirene): 26.4% | attractiveness in the olfactometer [1]: significantly attractive | test % ([1]; in canola oil): 29% | attraction in the olfactometer (statistical significance) [1, 5]: confirmed | attraction in the olfactometer (statistical significance) [1, 6]: statistically significant levels of attraction

CC1=CCC2C(C1)C2(C)C (stereo not shown) [Blend 3-carene, 3-carene]
attraction in the olfactometer (statistical significance) [1, 6]: statistically significant levels of attraction

CC/C=C\CCOC(C)=O [Z-3-hexenyl acetate]
attraction in the olfactometer (statistical significance) [1, 6]: statistically significant levels of attraction

CC/C=C\CCOC(=O)c1ccccc1O [Z-3-hexenyl salicylate]
test % ([1]; 2% concentration in Sirene): 26.7% | attractiveness in the olfactometer [1]: significantly attractive on its own | test % ([1]; in canola oil): 33.8% | attraction in the olfactometer (statistical significance) [1, 5]: confirmed | attraction in the olfactometer (statistical significance) [1, 6]: statistically significant levels of attraction

OCc1ccccc1 [benzyl alcohol]
optimum concentration in the olfactometer [1]: about 1% | attraction in the olfactometer (statistical significance) [1, 5]: confirmed | attraction in the olfactometer (statistical significance) [1, 6]: statistically significant levels of attraction

CNC(=O)Oc1cccc2ccccc12 [carbaryl]
% killed, summary of trials [2]: 69-94%

CC(C)=CCC/C(C)=C/CO [geraniol]
attraction in the olfactometer (statistical significance) [1, 6]: statistically significant levels of attraction

C=C(C)[C@H]1CC=C(C)CC1 [limonene]
attractiveness in the olfactometer [1]: statistically significant | attraction in the olfactometer (statistical significance) [1, 6]: statistically significant levels of attraction

CNC(=O)ON=C(C)SC [methomyl]
% killed, summary of trials [2]: killed all moths

C=CCc1ccc(OC)c(OC)c1 [methyl eugenol]
optimum concentration in the olfactometer [1]: about 2%

O=CCc1ccccc1 [phenylacetaldehyde]
% killed ([3]; attractant at 2%): 33.3 b % | N killed ([3]; attractant at 2%): 14 | % killed ([3]; attractant at 8%): 25.6 b % | N killed ([3]; attractant at 8%): 11 | Peak catch % of phero ([4]; Wamara1Soybean, 1-30 Jan 99): 0.4% | Whole experiment Lure N ([4]; Wamara1Soybean, 1-30 Jan 99): 10 | Peak catch % of phero ([4]; Wamara2 Soybean, 13-19 Feb 99): 1.1% | Whole experiment Lure N ([4]; Wamara2 Soybean, 13-19 Feb 99): 5 | Peak catch % of phero [4, 7]: 3.1% | Whole experiment Lure N [4, 7]: 8 | catch in field traps, in words ([4]; field trapping trials): caught very few moths | catch relative to the PBE1 catch ([4]; third direct comparison with PBE1): less than a quarter | attractiveness in the olfactometer [1]: significantly attractive | optimum concentration in the olfactometer [1]: about 1% | attraction in the olfactometer (statistical significance) [1, 5]: confirmed | attraction in the olfactometer (statistical significance) [1, 6]: statistically significant levels of attraction
